Reference: US6274606A, “Methods of treating central nervous system disorders with aryl substituted olefinic amine compounds” (Targacept, Inc., priority 1998, dated 2001)
pEC50: −log10 of the molar value.

Legend:
Format in all cases: cell-based
ganglionic receptors = biological target: T1, ganglionic receptors (Rattus norvegicus, UniProt P04757+P12392); test: cell-based; details: for Ganglion Effect (% nicotine): ganglionic cell preparations
T1 construct: endogenous in cells; host or cells: cell preparations derived from the adrenal gland
T1 sequence (P04757 26-499): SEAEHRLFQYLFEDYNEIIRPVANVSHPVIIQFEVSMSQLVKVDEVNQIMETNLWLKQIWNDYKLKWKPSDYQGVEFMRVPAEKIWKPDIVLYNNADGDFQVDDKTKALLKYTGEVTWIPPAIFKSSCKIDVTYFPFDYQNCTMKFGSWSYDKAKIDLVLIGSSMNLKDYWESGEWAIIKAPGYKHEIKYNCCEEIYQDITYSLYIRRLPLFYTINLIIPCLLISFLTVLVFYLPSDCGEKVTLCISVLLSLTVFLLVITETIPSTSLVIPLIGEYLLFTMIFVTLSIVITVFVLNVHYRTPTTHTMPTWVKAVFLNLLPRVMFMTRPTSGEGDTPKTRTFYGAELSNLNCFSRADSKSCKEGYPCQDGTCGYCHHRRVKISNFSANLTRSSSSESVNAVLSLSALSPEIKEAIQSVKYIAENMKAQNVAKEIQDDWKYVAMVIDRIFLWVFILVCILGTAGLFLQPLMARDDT
T1 sequence (P12392 21-495): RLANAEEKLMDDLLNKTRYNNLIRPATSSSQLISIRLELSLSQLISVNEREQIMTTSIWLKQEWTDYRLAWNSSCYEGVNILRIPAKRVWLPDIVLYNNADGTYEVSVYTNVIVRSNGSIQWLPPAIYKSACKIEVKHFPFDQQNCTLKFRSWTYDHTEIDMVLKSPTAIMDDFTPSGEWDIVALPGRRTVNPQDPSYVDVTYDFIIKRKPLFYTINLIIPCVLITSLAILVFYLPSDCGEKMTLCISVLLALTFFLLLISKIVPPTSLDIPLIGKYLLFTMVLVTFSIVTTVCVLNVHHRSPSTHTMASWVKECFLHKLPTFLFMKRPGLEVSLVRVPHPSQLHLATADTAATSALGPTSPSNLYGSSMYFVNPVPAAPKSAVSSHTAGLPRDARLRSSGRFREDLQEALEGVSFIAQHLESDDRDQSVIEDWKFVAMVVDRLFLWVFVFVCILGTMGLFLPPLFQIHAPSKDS

CNS nicotinic receptors = test: Determination of Dopamine Release
Experimental: As such, these compounds have the ability to cause relevant neurons to release or secrete acetylcholine, dopamine, and other neurotransmitters. […] Certain compounds of the present invention can provide secretion of dopamine in an amount which can exceed that elicited by an equal molar amount of (S)-(-)-nicotine.
Determination of Dolpamine Release
Dopamine release was measured using the techniques described in U.S. Pat. No. 5,597,919 to Dull et al., the subject matter of which is already incorporated herein by reference in its entirety. […] Reported EC50 is expressed in nM and Emax represent the amount released relative to nicotine.

muscle receptors = biological target: T2, muscle receptors (Homo sapiens, UniProt P02708+P07510+Q07001); details: muscle cell preparations
T2 construct: endogenous in cells; host or cells: cell preparations derived from muscle
T2 sequence (P07510 23-517): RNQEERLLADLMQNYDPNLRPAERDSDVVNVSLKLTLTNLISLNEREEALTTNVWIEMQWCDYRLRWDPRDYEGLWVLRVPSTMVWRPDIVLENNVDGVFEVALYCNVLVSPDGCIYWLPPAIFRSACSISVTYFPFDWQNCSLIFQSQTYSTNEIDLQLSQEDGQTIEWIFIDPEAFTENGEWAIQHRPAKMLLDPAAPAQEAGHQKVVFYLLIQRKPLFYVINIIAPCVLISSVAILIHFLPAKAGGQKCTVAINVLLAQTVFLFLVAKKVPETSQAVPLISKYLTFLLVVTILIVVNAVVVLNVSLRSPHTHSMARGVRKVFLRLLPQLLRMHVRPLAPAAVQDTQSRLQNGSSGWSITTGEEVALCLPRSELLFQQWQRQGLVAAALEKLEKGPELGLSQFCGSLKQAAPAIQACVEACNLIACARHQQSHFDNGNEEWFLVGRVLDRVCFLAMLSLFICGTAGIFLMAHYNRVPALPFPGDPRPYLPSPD
T2 sequence (P11230 24-501, further chain): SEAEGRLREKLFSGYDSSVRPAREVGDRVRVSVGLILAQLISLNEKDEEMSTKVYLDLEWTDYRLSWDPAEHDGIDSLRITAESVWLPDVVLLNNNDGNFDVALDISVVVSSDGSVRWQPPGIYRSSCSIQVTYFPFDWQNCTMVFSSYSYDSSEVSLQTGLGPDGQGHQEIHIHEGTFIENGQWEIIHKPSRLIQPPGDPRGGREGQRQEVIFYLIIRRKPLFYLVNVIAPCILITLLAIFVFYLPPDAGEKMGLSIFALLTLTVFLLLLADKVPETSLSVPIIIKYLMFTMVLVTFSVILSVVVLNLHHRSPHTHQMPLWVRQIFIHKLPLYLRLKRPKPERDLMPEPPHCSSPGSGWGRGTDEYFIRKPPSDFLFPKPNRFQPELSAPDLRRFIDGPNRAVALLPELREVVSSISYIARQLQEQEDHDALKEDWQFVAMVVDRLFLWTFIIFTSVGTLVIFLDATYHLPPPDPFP
T2 sequence (Q07001 22-517): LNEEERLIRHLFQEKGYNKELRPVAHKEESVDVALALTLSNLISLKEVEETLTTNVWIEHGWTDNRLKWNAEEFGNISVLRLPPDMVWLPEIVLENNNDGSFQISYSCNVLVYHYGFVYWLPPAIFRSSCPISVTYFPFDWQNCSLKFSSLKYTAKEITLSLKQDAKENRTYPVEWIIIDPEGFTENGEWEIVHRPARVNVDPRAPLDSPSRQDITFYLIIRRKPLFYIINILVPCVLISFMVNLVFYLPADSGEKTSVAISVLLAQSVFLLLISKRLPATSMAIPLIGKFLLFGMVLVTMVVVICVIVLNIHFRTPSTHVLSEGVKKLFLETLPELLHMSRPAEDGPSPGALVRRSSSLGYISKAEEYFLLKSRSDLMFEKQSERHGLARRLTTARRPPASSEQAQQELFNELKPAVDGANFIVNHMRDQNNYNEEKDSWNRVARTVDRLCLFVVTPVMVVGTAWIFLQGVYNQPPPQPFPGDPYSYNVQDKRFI
T2 sequence (P02708 21-457): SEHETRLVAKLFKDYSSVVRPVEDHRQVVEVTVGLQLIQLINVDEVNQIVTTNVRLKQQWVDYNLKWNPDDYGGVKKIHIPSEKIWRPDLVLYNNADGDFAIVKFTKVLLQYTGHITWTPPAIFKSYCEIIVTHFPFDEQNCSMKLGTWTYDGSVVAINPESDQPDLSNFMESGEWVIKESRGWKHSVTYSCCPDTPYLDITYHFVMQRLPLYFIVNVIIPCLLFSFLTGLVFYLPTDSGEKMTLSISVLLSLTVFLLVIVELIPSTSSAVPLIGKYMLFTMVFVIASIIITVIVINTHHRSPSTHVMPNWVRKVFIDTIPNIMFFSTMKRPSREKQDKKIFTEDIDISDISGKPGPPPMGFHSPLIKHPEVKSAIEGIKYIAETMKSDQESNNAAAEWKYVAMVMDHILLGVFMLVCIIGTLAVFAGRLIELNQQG

Row | Compound | Ganglion Effect (% nicotine) (ganglionic receptors) | also measured
1 | CNCC/C=C/c1cncc(Oc2ccccc2)c1 [Sample No. 3, (E)-N-Methyl-4-[3-(5-phenoxypyridin)yl]-3-buten-1-amine] | < 15 | 
2 | CNCC/C=C/c1cncc(OCc2ccccc2)c1 [Sample No. 1, (E)-N-Methyl-4-[3-(5-benzyloxypyridin)yl]-3-buten-1-amine] | 0 | 
3 | NCC/C=C/c1cccnc1.O=C(O)/C=C/C(=O)O.O=C(O)/C=C/C(=O)O [Sample No. 6, (E)-4-(3-pyridinyl)-3-buten-1-amine difumarate] | 23 | 
4 | CNCC/C=C/c1cncc(OC(C)C)c1 [Sample No. 4, (E)-N-Methyl-4-[3-(5-isopropoxypyridin)yl]-3-buten-1-amine] | < 15 | 
5 | CCOc1cncc(/C=C/CCNC)c1 [Sample No. 7, (E)-N-Methyl-4-[3-(5-ethoxypyridin)yl]-3-buten-1-amine Sesquifumarate] |  | Emax (ganglionic receptors; read-out: Ganglion Effect (% nicotine)): < 15%
6 | CNCC/C=C/c1cncc(-c2ccccc2)c1 [Sample No. 8, (E)-N-Methyl-4-[3-(5-phenylpyridin)yl]-3-buten-1-amine] | 0 | 
7 | CNCC/C=C/c1cncc(COC)c1 [Sample No. 5, (E)-N-Methyl-4-[3-(5-methoxymethylpyridin)yl]-3-buten-1-amine] | 0 | 
8 | CNCC/C=C/c1cncc(N)c1 [Sample No. 9, (E)-N-methyl-4-[3-(5-aminopyridin)yl]-3-buten-1-amine] | 4 | 
9 | NCC/C=C/c1cncc(Br)c1 [Sample No. 2, (E)-4-[3-(5-Bromopyridin)yl]-3-buten-1-amine Hemifumarate] | 11 | pEC50 (CNS nicotinic receptors): 5.62; Dopamine Release Emax (CNS nicotinic receptors; percentage of release obtained with a concentration of (S)-(-)-nicotine resulting in maximal effects): 107%; Muscle Effect (% nicotine) (muscle receptors): 8
